Assay results as given in patent US4314028A, “Fermentation process for producing tallysomycin compounds” (priority 1980, dated 1982).

Assays:
[1] = Acute toxicity, single dose LD50; assay type: in vivo, dd mice; conditions: ip, 30 days observation, copper-chelated form unless otherwise stated
Protocol: Graded doses of test compounds were administered intraperitoneally to groups of dd mice. The injection was given one time only or once daily for 9 consecutive days. Death or survival of the animals was recorded for 30 days after the last dose of test compound to calculate the single or multiple median lethal dose (LD50).

[2] = test system: Mycobacterium smegmatis strain M6-3; experiment: Relative antibacterial potency, paper-disc agar diffusion method; assay type: cell-based; conditions: relative to tallysomycin A standard=1000 mcg/mg
Protocol: The relative antibacterial potencies (tallysomycin A standard=1000 mcg/mg) of the tallysomycin derivatives were determined by the paper-disc agar diffusion method using Mycobacterium smegmatis strain M6-3 as the assay organism.

Sarcoma 180 = experiment: animal or person; assay type: in vivo, dd-strain mice; conditions: copper-chelated form unless otherwise stated; for Antitumor activity S180 (ED150): ip, once daily 9 days, effective dose 150, survival; for Antitumor therapeutic index S180: single dose LD50/ED150
From the text: (§1) The antitumor activity of the tallysomycin derivatives was examined in four experimental tumor systems in mice. Lymphocytic leukemia P388 and Lewis lung carcinoma were implanted intraperitoneally into BDF1 mice of either sex at an inoculum size of 3×10^5 and 5×10^5 cells per mouse, respectively. Sarcoma 180 ascites tumor was inoculated intraperitoneally into male dd-strain mice with […] per mouse. Melanotic melanoma B16 was implanted subcutaneously into BDF1 mice with 5×10^5 cells per mouse. Twenty-four hours after the implantation of tumor cells, graded doses of test compounds were administered to mice intraperitoneally in an injection volume of 0.2 ml. per 10 grams of body weight. Test compounds were given once daily for 9 days (qd 1→9 schedule) except for the mice inoculated with Lewis lung carcinoma which were treated for 11 days (qd 1→11). Death or survival of the treated and non-treated (control) animals was recorded daily during the observation period of 45 days after the implantation of tumor cells, and the median survival time was calculated for each of the test (T) and control (C) groups. […] The actual dose giving a T/C of 125% was estimated by linear regression analysis and defined as the effective dose 125 or ED125. The effective dose 150 (ED150) was employed for the evaluation of antitumor effect against Sarcoma 180. In the B16 melanoma experiment the tumor size was measured on day 16 after tumor inoculation, and the dose giving 50% inhibition of tumor growth (ID50) was calculated from regression lines.
(§2) The antitumor therapeutic index was calculated for each derivative from the ratio of toxicity and antitumor activity.

[3] = test system: Lymphocytic leukemia P388; experiment: animal or person; assay type: in vivo, BDF1 mice; conditions: copper-chelated form unless otherwise stated; for Antitumor activity P388 (ED125): ip, once daily 9 days, dose giving T/C survival of 125%; for Antitumor therapeutic index P388: single dose LD50/ED125
From the text: as §1, §2

[4] = test system: lysogenic bacterium E. coli W1709 (λ); experiment: Prophage induction of lysogenic bacterium (ILB activity); assay type: cell-based; conditions: t/c ratio of plaque counts greater than 3.0
Protocol: The activity of prophage induction of lysogenic bacterium E. coli W1709 (λ) was determined according to the method disclosed by Lein et al. in Nature 196: 783-784 (1962). The plaque count was made on the agar plate containing test compound (t) and control plate (c). A t/c ratio of the plaque counts of greater than 3.0 was defined to be a significant level and lysogenic induction activity (ILB activity) was expressed by the minimum inducible concentration of the test compound.

Lewis lung carcinoma = experiment: Antitumor activity in mice, Lewis lung carcinoma; assay type: in vivo, BDF1 mice; conditions: copper-chelated form unless otherwise stated; for Antitumor activity Lewis lung (ED125): ip, once daily 11 days, dose giving T/C survival of 125%; for Antitumor therapeutic index Lewis Lung: single dose LD50/ED125
From the text: as §1, §2

[5] = test system: Bacillus subtilis PCI 219; experiment: MIC, two-fold agar dilution method; assay type: cell-based; conditions: nutrient agar
Protocol: (§3) The minimum inhibitory concentrations (MIC) of the semibiosynthetic tallysomycin derivatives of the present invention were determined against fungi and gram-positive, gram-negative and acid-fast bacteria by the two-fold agar dilution method. Nutrient agar was used for bacteria and Sabouraud agar for fungi. The results are shown in the table below comparatively with tallysomycin A and B.

Mycobacterium 607 = experiment: MIC, two-fold agar dilution method; assay type: cell-based; conditions: nutrient agar
Protocol: as §3

[6] = test system: Staphylococcus aureus Smith; experiment: MIC, two-fold agar dilution method; assay type: cell-based; conditions: nutrient agar
Protocol: as §3

Proteus mirabilis A9554 = experiment: MIC, two-fold agar dilution method; assay type: cell-based; conditions: nutrient agar
Protocol: as §3

Escherichia coli NIHJ = experiment: MIC, two-fold agar dilution method; assay type: cell-based; conditions: nutrient agar
Protocol: as §3

[7] = test system: Candida albicans IAM 4888; experiment: MIC, two-fold agar dilution method; assay type: cell-based; conditions: Sabouraud agar
Protocol: as §3

[8] = test system: Aspergillus fumigatus IAM 2593; experiment: MIC, two-fold agar dilution method; assay type: cell-based; conditions: Sabouraud agar
Protocol: as §3

Sarcina lutea PCI1001 = experiment: MIC, two-fold agar dilution method; assay type: cell-based; conditions: nutrient agar
Protocol: as §3

Melanotic melanoma B16 = experiment: Antitumor activity in mice, melanotic melanoma B16; assay type: in vivo, BDF1 mice; conditions: copper-chelated form unless otherwise stated; for Antitumor activity B16 (ID50): ip, once daily 9 days, 50% inhibition of tumor growth, day 16, 23040 min; for Antitumor therapeutic index B16: single dose LD50/ID50
From the text: as §1, §2

Structure (SMILES) | LD50 single dose [1] | Antibacterial potency [2] | Antitumor activity S180 (ED150) (Sarcoma 180) | Antitumor therapeutic index S180 (Sarcoma 180) | Antitumor activity P388 (ED125) [3] | Antitumor therapeutic index P388 [3] | ILB activity (minimum inducible concentration) [4] | Antitumor activity Lewis lung (ED125) (Lewis lung carcinoma) | Antitumor therapeutic index Lewis Lung (Lewis lung carcinoma) | minimum inhibitory concentration (MIC) [5] | minimum inhibitory concentration (MIC) (Mycobacterium 607) | minimum inhibitory concentration (MIC) [6] | minimum inhibitory concentration (MIC) (Proteus mirabilis A9554) | minimum inhibitory concentration (MIC) (Escherichia coli NIHJ) | minimum inhibitory concentration (MIC) [7] | minimum inhibitory concentration (MIC) [8] | minimum inhibitory concentration (MIC) (Sarcina lutea PCI1001) | Antitumor activity B16 (ID50) (Melanotic melanoma B16) | Antitumor therapeutic index B16 (Melanotic melanoma B16)
Cc1c(N)nc(C(CC(N)=O)NCC(N)C(N)=O)nc1C(=O)NC(C(=O)NC(C)C(O)CC(=O)NC(C(=O)NC(OC1OC(C)C(N)C(O)C1O)C(O)c1nc(-c2nc(C(=O)NCCCC(N)CC(=O)NCCC[S+](C)C)cs2)cs1)C(C)O)C(OC1OC(CO)C(O)C(O)C1OC1OC(CO)C(O)C(OC(N)=O)C1O)c1c[nH]cn1 (stereo not shown) [Tallysomycin S2a] | 25 mg/kg/day | 350 μ/mg | 0.07 mg/kg/day | 357 | > 3.0 mg/kg/day | < 8 | 0.31 µg/mL | 0.14 mg/kg/day | 179 | < 0.05 | < 0.05 | 0.2 | 0.2 | < 0.05 | 6.3 | 0.4 | 0.8 | 0.17 mg/kg/day | 147
Cc1c(N)nc(C(CC(N)=O)NCC(N)C(N)=O)nc1C(=O)NC(C(=O)NC(C)C(O)CC(=O)NC(C(=O)NC(OC1OC(C)C(N)C(O)C1O)C(O)c1nc(-c2nc(C(=O)NCCCC(N)CC(=O)NCCCCN)cs2)cs1)C(C)O)C(OC1OC(CO)C(O)C(O)C1OC1OC(CO)C(O)C(OC(N)=O)C1O)c1c[nH]cn1 (stereo not shown) [Tallysomycin S10a] | 27 mg/kg/day | 1,450 μ/mg | 0.08 mg/kg/day | 338 | 0.28 mg/kg/day | 96 | 0.16 µg/mL |  |  | 0.04 | 0.2 | 1.6 | 0.8 | 0.4 | 3.1 | 1.6 | 0.4 | 0.39 mg/kg/day | 69
CNCCCNC(=O)c1csc(-c2csc(C(O)C(NC(=O)C(NC(=O)CC(O)C(C)NC(=O)C(NC(=O)c3nc(C(CC(N)=O)NCC(N)C(N)=O)nc(N)c3C)C(OC3OC(CO)C(O)C(O)C3OC3OC(CO)C(O)C(OC(N)=O)C3O)c3c[nH]cn3)C(C)O)OC3OC(C)C(N)C(O)C3O)n2)n1 (stereo not shown) [Tallysomycin S11b] | 21 mg/kg/day | 450 μ/mg | 0.20 mg/kg/day | 105 | 0.28 mg/kg/day | 75 | 0.63 µg/mL | 0.32 mg/kg/day | 66 | 0.1 | 0.1 | 3.1 | 1.6 | 0.2 | 12.5 | 6.3 | 0.8 | 0.70 mg/kg/day | 30
Cc1c(N)nc(C(CC(N)=O)NCC(N)C(N)=O)nc1C(=O)NC(C(=O)NC(C)C(O)CC(=O)NC(C(=O)NC(OC1OC(C)C(N)C(O)C1O)C(O)c1nc(-c2nc(C(=O)NCCCN3CCCCC3C)cs2)cs1)C(C)O)C(OC1OC(CO)C(O)C(O)C1OC1OC(CO)C(O)C(OC(N)=O)C1O)c1c[nH]cn1 (stereo not shown) [Tallysomycin S13b] | 35 mg/kg/day | 1,090 μ/mg | 0.33 mg/kg/day | 106 | 0.70 mg/kg/day | 50 | 0.08 µg/mL |  |  | 0.8 | 0.2 | 6.3 | 12.5 | 0.4 | > 100 | 12.5 | 6.3 | 0.23 mg/kg/day | 152
Cc1c(N)nc(C(CC(N)=O)NCC(N)C(N)=O)nc1C(=O)NC(C(=O)NC(C)C(O)CC(=O)NC(C(=O)NC(OC1OC(C)C(N)C(O)C1O)C(O)c1nc(-c2nc(C(=O)NCCCC(N)CC(=O)NCCCN)cs2)cs1)C(C)O)C(OC1OC(CO)C(O)C(O)C1OC1OC(CO)C(O)C(OC(N)=O)C1O)c1c[nH]cn1 (stereo not shown) [Tallysomycin S1a] | 25 mg/kg/day | 1,075 μ/mg | 0.07 mg/kg/day | 357 | 1.2 mg/kg/day | 21 | 0.16 µg/mL |  |  | < 0.003 | 0.012 | 0.4 | 0.4 | 0.1 | 3.1 | 0.8 | 0.1 | 0.84 mg/kg/day | 30
Cc1c(N)nc(C(CC(N)=O)NCC(N)C(N)=O)nc1C(=O)NC(C(=O)NC(C)C(O)CC(=O)NC(C(=O)NC(OC1OC(C)C(N)C(O)C1O)C(O)c1nc(-c2nc(C(=O)NCCCN3CCOCC3)cs2)cs1)C(C)O)C(OC1OC(CO)C(O)C(O)C1OC1OC(CO)C(O)C(OC(N)=O)C1O)c1c[nH]cn1 (stereo not shown) [Tallysomycin S12b] | > 50 mg/kg/day | 390 μ/mg | 0.06 mg/kg/day | > 833 | 1.30 mg/kg/day | > 38 | 0.31 µg/mL |  |  | 0.4 | 0.2 | 12.5 | 50 | 1.6 | > 100 | 25 | 12.5 | 1.30 mg/kg/day | > 38
